These results are taken from patent US6596703B1, “Promotion of wound healing utilizing steroids having reduced deteriorous systemic side effects typical of glucocorticoids, mineralocorticoids and sex steroids” (Jagotec AG, priority 1997, dated 2003).

Entries after “also recorded” stand apart in the source; their conditions may differ. Like-named read-outs stand apart in the source and are kept apart here.

Assay [1] concerns murine chronic granulomatous air pouch. Briefly: Inflammatory-induced angiogenesis in the murine chronic granulomatous air pouch, topical application in 2.5% hyaluronan. Type of assay: in vivo, mice. Particulars: for effect on angiogenesis: topical application (1 mg/kg) in 2.5% hyaluronan; for Vascular Index: 0.1 ml 2.5% hyaluronan alone topically daily day 0 to day 6. How it is done: (§1) Chronic granulomatous air pouches were raised in mice by known methods (the reader is referred to PCT/CA94/00207 at page 16 for an experimental method in this regard) utilizing 0.5 ml Freund's Complete adjuvant with 0.1% croton oil injected into 1 day old air pouches. Animals were dosed with saline/0.01% DMSO either subcutaneously (s.c.) into the nape of the neck, or with saline applied topically in 0.1 ml 2.5% hyaluronan. Vascular casts incorporating carmine in gelatin were formed at termination, the tissues weighed dry (mg), papain digested, and the carmine content (μg) determined by spectrophotometric assay. Vascularity was calculated as the Vascularity Index (μg/mg). Results are expressed as means±s.e.m.
Investigation of the action of topical tetrahydrocortisol, tetrahydrocortisone, tetrahydrocortexolone and the like on inflammatory-induced angiogenesis in the murine chronic granulomatous air pouch was pursued. Groups of mice (n=8-13) were depilated and the inflammation induced 4 days later. Tetrahydrocortisol (TH-F) and tetrahydrocortisone (TH-E) were applied topically (1 mg/kg) in 2.5% hyaluronan (0.1 ml) daily from the day of induction (day 0) to termination (day 6). Controls were dosed with 0.1 ml 2.5% hyaluronan alone.
Investigation of the action of topical tetrahydrocortisol, tetrahydrocortisone and tetrahydrocortexolone and the like on inflammatory-induced angiogenesis in the murine chronic granulomatous air pouch was pursued. Groups of mice (n=8-13) were depilated and the inflammation induced 4 days later. Tetrahydrocortisol (TH-F) was applied topically with 2.5% hyaluronan (0.1 ml of composition 0.1-1.0 mg of tetrahydrocortisol/kg) by weight daily from the day of induction (day 0) to termination (day 6). Controls were dosed with 0.1 ml 2.5% hyaluronan alone.

For assay [2] the test system is unchanged. Kind of assay: Inflammation-induced angiogenesis in the murine chronic granulomatous air pouch, s.c. dosing from induction (day 0) to day 6. To be noted: for Vascular Index: mean ± s.e.m.; for angiostatic action: administered alone s.c. 1 mg/kg, no heparin, prophylactic dosing (Tables 1, 2). Type of assay: in vivo, mice. As for the experimental part: as §1
Investigation of the action of tetrahydrocortisol, tetrahydrocortisone and tetrahydrocortexolone and the like on inflammation-induced angiogenesis in the murine chronic granulomatous air pouch was pursued. Groups of mice (n=8-13) were dosed with tetrahydrocortisol, tetrahydrocortisone or tetrahydrocortexolone or the like (0.1-3.0 mg/kg in 0.1 ml saline/0.01% DMSO, s.c) daily from induction (day 0) to termination on day 6. Controls were dosed with 0.1 ml saline/0.01% DMSO subcutaneously.
Investigation of the action of angiostatic and anti-inflammatory steroids on inflammation-induced angiogenesis in the murine chronic granulomatous air pouch was pursued. Groups of mice (n=8-13) were treated with the steroids at 1.0 mg/kg (0.1 ml saline/0.01% DMSO, s.c), except of dexamethasone at (0.2 mg/kg), daily from the day of induction (day 0) to termination on day 6. Controls were given 0.1 ml saline/0.01% DMSO s.c. (Key: Tetrahydrocortisol (TH-F), Tetrahydrocortisone (TH-E).

For assay [3] the test system is unchanged. Particulars: s.c. at 1 mg/kg; reference (1); cited from earlier work.
The subject of assay [4] is established 7-day old vasculature of the murine chronic granulomatous air pouch. Briefly: Established 7-day old vasculature of the murine chronic granulomatous air pouch, s.c. dosing from day 7 to day 14 or 21. To be noted: for Vascular Index: Table 3. Type of assay: in vivo, mice. How it is done:
as §1
Investigation of the action of tetrahydrocortisol, tetrahydrocortisone and tetrahydrocortexolone and the like on the established 7-day old vasculature of the murine chronic granulomatous air pouch was pursued. Groups of mice were dosed with tetrahydrocortisol, tetrahydrocortisone or tetrahydrocortexolone or the like (0.1-3.0 mg/kg in 0.1 ml saline/0.01% DMSO, s.c) daily from day 7 to termination at day 14 or day 21. Controls were dosed with 0.1 ml saline (0.01% DMSO alone).

Setting [5] is: Table 1, 1 mg/kg s.c. daily day 0 to day 6.
[6] abbreviates: Table 2, 1.0 mg/kg s.c. daily day 0 to day 6.

As to `C[C@]12CCC(O)CC1CC[C@@H]1[C@@H]2C(O)C[C@@]2(C)[C@H]1CC[C@]2(O)C(=O)CO` (some centres unmarked) [TH-F, 5-pregnane-3,11,17,21-tetrol-20-one], the figures for the “effect on angiogenesis” value in assay [1] (listed as tetrahydrocortisol) and in assay [3] were “significant acceleration of angiogenesis; also recorded: Definite angiogenesis action” and “capable of inhibiting angiogenesis”, respectively. Besides, in assay [1] (topical in 2.5% hyaluronan, 0.1-1.0 mg/kg (Table 5)), the “dose relation of acceleration of angiogenesis” value is given as “dose related”. Besides, the “Vascular Index” value in assay [2] (setting [5]) worked out at 5.29 ± 0.61 µg/mg; in assay [2] (setting [6]) it was 13.088 ± 1.630 µg/mg. Also, the “angiostatic action” value in assay [2] was “decrease in vascularity”.

In the case of hyaluronan [HA], the “Vascular Index” value amounted to 11.180 ± 1.980 µg/mg in assay [1] (Table 4) and 11.180 ± 1.98 µg/mg in assay [1] (Table 5).

Consider `C[C@]12CCC(=O)C=C1CC[C@@H]1[C@@H]2C(=O)C[C@@]2(C)[C@H]1CC[C@]2(O)C(=O)CO` [Cortisone, cortisone], for which, in assay [1], the “effect on angiogenesis” value is recorded as “angiostatic”. Further, the “Vascular Index” value in assay [2] (setting [5]) came out at 8.23 ± 0.62 µg/mg. In assay [2], the “angiostatic action” value was “inactive”.

On to heparin, for which the “Vascular Index” value in assay [2] (Table 1, 1000 U p.o.) turned out to be 7.93 ± 0.83 µg/mg.

On to `C[C@]12CCC(O)C[C@H]1CC[C@@H]1[C@@H]2C(=O)C[C@@]2(C)[C@H]1CC[C@]2(O)C(=O)CO` (some centres unmarked) [TH-E, 5-pregnane-3,17,21-triol-11,20-dione], for which the “effect on angiogenesis” value was “significant acceleration of angiogenesis; also recorded: Definite angiogenesis action” in assay [1] (listed as tetrahydrocortisone) and “capable of inhibiting angiogenesis” in assay [3]. For the same compound, the “Vascular Index” value in assay [2] (setting [6]) stood at 18.860 ± 1.830 µg/mg; in assay [4] (0.1 mg/kg s.c. daily from day 7, termination Day 14) it was 18.18 ± 1.97 µg/mg; in assay [4] (0.1 mg/kg s.c. daily from day 7, termination Day 21) it was 18.59 ± 1.84 µg/mg; in assay [4] (0.3 mg/kg s.c. daily from day 7, termination Day 14), 20.38 ± 1.91 µg/mg; in assay [4] (0.3 mg/kg s.c. daily from day 7, termination Day 21) it was 31.33 ± 2.91 µg/mg; in assay [4] (1.0 mg/kg s.c. daily from day 7, termination Day 14), 22.49 ± 3.77 µg/mg. The “Vascular Index” value in assay [4] (1.0 mg/kg s.c. daily from day 7, termination Day 21) amounted to 25.75 ± 2.40 µg/mg; in assay [4] (3.0 mg/kg s.c. daily from day 7, termination Day 14) it was 18.87 ± 1.29 µg/mg; in assay [4] (3.0 mg/kg s.c. daily from day 7, termination Day 21), 25.91 ± 1.85 µg/mg. Also, the “angiostatic action” value in assay [2] is listed as “without effect”; in assay [4] (s.c., no heparin, therapeutic dosing (Table 3)), “without effect”.

For the compound `C[C@]12CC[C@@H](O)C[C@H]1CC[C@@H]1[C@@H]2CC[C@@]2(C)[C@H]1CC[C@]2(O)C(=O)CO` [TH-S, tetrahydrocortexolone], the “effect on angiogenesis” value in assay [3] is “capable of inhibiting angiogenesis”.
